Assay: solubility in water
Assay type: physicochemical
Details: pH 7.4, aqueous buffer
Source text: Examples of such active ingredients are, for example, Biopharmaceutics Classification System (BCS) Class IV drug substances that are characterized by low solubility and low permeability (see “Waiver of in vivo bioavailability and bioequivalence studies for immediate-release solid oral dosage forms based on a biopharmaceutics classification system”, U.S. Department of Health and Human Services, Food and Drug Administration, Center for Drug Evaluation and Research (CDER), August 2000). It will be recognized that aqueous solubility of many compounds is pH-dependent; in the case of such compounds the solubility of interest herein is at a physiologically relevant pH, for example a pH of about 1 to about 8.

SMILES: Nc1ncc(-c2cnn(CCO)c2)c2scc(-c3ccc(NC(=O)Nc4cccc(F)c4)cc3)c12 [N-(4-{4-amino-7-[1-(2-hydroxyethyl)-1H-pyrazol-4-yl]thieno[3,2-c]pyridin-3-yl}phenyl)-N′-(3-fluorophenyl)urea]
- solubility: < 0.03 µg/mL
